{"source": "patent US20230159445A1", "about": "“STAT INHIBITORY COMPOUNDS AND COMPOSITIONS” (JANPIX LIMITED, priority 2020, published 2023)"}
{"system": "MV4-11 cells", "experiment": "MV4-11 Cell Cytotoxicity Assay (CellTiter-Blue, 72 h)", "assay_type": "cell-based, human", "conditions": "Homo sapiens, MV4-11; MV-4-11 cells", "description": "In some embodiments, the potency of the STAT5 inhibitors are evaluated by an in vitro assay such as MV4-11 Cell Cytotoxicity Assay. […] 10,000 cells were plated per well in 96-well flat-bottom sterile culture plates with low-evaporation lids. After 24 h, inhibitors and a vehicle control (0.5% DMSO) were added and the cells were incubated for 72 h at 37° C. in 5% CO2. Inhibitors were examined in triplicate at a maximal concentration of 50 μM, followed by 1:2 dilutions in subsequent wells (25, 12.5, 6.25, 3.125, 1.5625, 0.78125, 0.390625, 0.195313 and 0.097656 μM). After 72 h, the wells were treated with CellTiter-Blue® (20 μL/well), and the plates were incubated using standard cell culture conditions for 1 hour. Fluorescence was measured at 560/590 nm.", "units": {"IC50": "µM"}}
{"smiles": "CC(C)(C)c1cc(CN(C(=O)CN(Cc2ccccn2)S(=O)(=O)c2c(F)c(F)c(F)c(F)c2F)c2ccc(C(=O)O)c(O)c2)cc(C2CC2)c1", "note": "[Compound 1008, 4-(N-(3-(tert-butyl)-5-cyclopropylbenzyl)-2-(N-(pyridin-2-ylmethyl)-(2,3,4,5,6-pentafluorophenyl)sulfonamido)acetamido)-2-hydroxybenzoic acid]", "IC50": "3.16 to 100"}
{"smiles": "COc1c(CN(C(=O)CN(Cc2ccc(Cl)cc2)S(=O)(=O)c2c(F)c(F)c(F)c(F)c2F)c2ccc(C(=O)O)c(O)c2)cc(C(C)(C)C)cc1C1CC1", "note": "[Compound 1009, 4-(N-(5-(tert-butyl)-3-cyclopropyl-2-methoxybenzyl)-2-(N-(4-chlorobenzyl)-(2,3,4,5,6-pentafluorophenyl)sulfon-amido)acetamido)-2-hydroxybenzoic acid]", "IC50": "3.16 to 100"}
{"smiles": "O=C(O)c1ccc(N(Cc2cc(OCC3CC3)cc(OCC3CC3)c2)C(=O)CN(Cc2ccc(Cl)cc2)S(=O)(=O)c2c(F)c(F)c(F)c(F)c2F)cc1O", "note": "[Compound 1011, 4-(N-(3,5-bis(cyclopropylmethoxy)benzyl)-2-(N-(4-chlorobenzyl)-(2,3,4,5,6-pentafluorophenyl)sulfon-amido)acetamido)-2-hydroxybenzoic acid]", "IC50": "3.16 to 100"}
{"smiles": "CC(C)(C)c1cc(CN(C(=O)CN(Cc2cccnc2)S(=O)(=O)c2c(F)c(F)c(F)c(F)c2F)c2ccc(C(=O)O)c(O)c2)cc(C2CC2)c1", "note": "[Compound 1013, 4-(N-(3-(tert-butyl)-5-cyclopropylbenzyl)-2-(N-(pyridin-3-ylmethyl)-(2,3,4,5,6-pentafluoro-phenyl)sulfonamido)acetamido)-2-hydroxybenzoic acid]", "IC50": "3.16 to 100"}
{"smiles": "CC(C)(C)c1cc(CN(C(=O)CN(Cc2ccc(Cl)cc2)S(=O)(=O)c2c(F)c(F)c(F)c(F)c2F)c2ccc(O)c(C(=O)O)c2)cc(C2CC2)c1", "note": "[Compound 1018, 5-(N-(3-(tert-butyl)-5-cyclopropylbenzyl)-2-(N-(4-chlorobenzyl)-(2,3,4,5,6-pentafluorophenyl)sulfon-amido)acetamido)-2-hydroxybenzoic acid]", "IC50": "3.16 to 100"}
{"smiles": "CC(C)(C)c1cc(CN(C(=O)CN(Cc2ccc(Cl)cc2)S(=O)(=O)c2c(F)c(F)c(F)c(F)c2F)c2ccc(C(C)(C)C(=O)O)cc2)cc(C2CC2)c1", "note": "[Compound 1019, 2-(4-(N-(3-(tert-butyl)-5-cyclopropylbenzyl)-2-(N-(4-chlorobenzyl)-(2,3,4,5,6-pentafluorophenyl)sulfon-amido)acetamido)phenyl)-2-methylpropanoic acid]", "IC50": "1 to 3.16"}
{"smiles": "O=C(O)c1ccc(N(Cc2cc(O)cc(OCC3CC3)c2)C(=O)CN(Cc2ccc(Cl)cc2)S(=O)(=O)c2c(F)c(F)c(F)c(F)c2F)cc1O", "note": "[Compound 1020, 4-(2-(N-(4-chlorobenzyl)-(2,3,4,5,6-pentafluorophenyl)sulfon-amido)-N-(3-(cyclopropylmethoxy)-5-hydroxybenzyl)acetamido)-2-hydroxybenzoic acid]", "IC50": "3.16 to 100"}
{"smiles": "COc1ccc(CN(CC(=O)N(Cc2cc(C3CC3)cc(C(C)(C)C)c2)c2ccc(C(=O)O)c(O)c2)S(=O)(=O)c2c(F)c(F)c(F)c(F)c2F)cc1", "note": "[Compound 1026, 4-(N-(3-(tert-butyl)-5-cyclopropylbenzyl)-2-(N-(4-methoxybenzyl)-(2,3,4,5,6-pentafluoro-phenyl)sulfonamido)acetamido)-2-hydroxybenzoic acid]", "IC50": "3.16 to 100"}
{"smiles": "COc1ccc(CN(CC(=O)N(Cc2cc(C3CC3)cc(C(C)(C)C)c2)c2ccc(C(=O)O)c(O)c2)S(=O)(=O)c2c(F)c(F)c(F)c(F)c2F)cc1F", "note": "[Compound 1027, 4-(N-(3-(tert-butyl)-5-cyclopropylbenzyl)-2-(N-(3-fluoro-4-methoxybenzyl)-(2,3,4,5,6-pentafluoro-phenyl)sulfonamido)acetamido)-2-hydroxybenzoic acid]", "IC50": "3.16 to 100"}
